Measured values: patent US8772298B2, “Spirocyclic heterocycles medicaments containing said compounds, use thereof and method for their production” (Boehringer Ingelheim International GmbH, priority 2008, dated 2014)

target: T1, human EGF-R (Homo sapiens, UniProt P00533); assay: Inhibition of EGFR-dependent proliferation (EGF-stimulated murine haematopoietic cell line expressing human EGF-R); assay type: cell-based; conditions: 20 ng/ml human EGF, 48 hours at 37° C., Cell Titer 96 AQueous assay
T1 construct: expressed in transfected cells
Method: A murine haematopoietic cell line is genetically modified so as to express functional human EGF-R. The proliferation of this cell line can therefore be stimulated by EGF.
The test is carried out as follows:
The cells are cultivated in RPMI/1640 medium. The proliferation is stimulated with 20 ng/ml of human EGF (Promega). To investigate the inhibitory activity of the compounds according to the invention these compounds are dissolved in 100% dimethylsulphoxide (DMSO) and added to the cultures in various dilutions, the maximum DMSO concentration being 1%. The cultures are incubated for 48 hours at 37° C.
In order to determine the inhibitory activity of the compounds according to the invention the relative cell number is measured in O.D. Units using the Cell Titer 96™ AQueous Non-Radioactive Cell Proliferation Assay (Promega). The relative cell number is calculated as a percentage of the control and the concentration of active substance which inhibits the proliferation of the cells by 50% (IC50) is derived therefrom.

T1 sequence (P00533 25-1210): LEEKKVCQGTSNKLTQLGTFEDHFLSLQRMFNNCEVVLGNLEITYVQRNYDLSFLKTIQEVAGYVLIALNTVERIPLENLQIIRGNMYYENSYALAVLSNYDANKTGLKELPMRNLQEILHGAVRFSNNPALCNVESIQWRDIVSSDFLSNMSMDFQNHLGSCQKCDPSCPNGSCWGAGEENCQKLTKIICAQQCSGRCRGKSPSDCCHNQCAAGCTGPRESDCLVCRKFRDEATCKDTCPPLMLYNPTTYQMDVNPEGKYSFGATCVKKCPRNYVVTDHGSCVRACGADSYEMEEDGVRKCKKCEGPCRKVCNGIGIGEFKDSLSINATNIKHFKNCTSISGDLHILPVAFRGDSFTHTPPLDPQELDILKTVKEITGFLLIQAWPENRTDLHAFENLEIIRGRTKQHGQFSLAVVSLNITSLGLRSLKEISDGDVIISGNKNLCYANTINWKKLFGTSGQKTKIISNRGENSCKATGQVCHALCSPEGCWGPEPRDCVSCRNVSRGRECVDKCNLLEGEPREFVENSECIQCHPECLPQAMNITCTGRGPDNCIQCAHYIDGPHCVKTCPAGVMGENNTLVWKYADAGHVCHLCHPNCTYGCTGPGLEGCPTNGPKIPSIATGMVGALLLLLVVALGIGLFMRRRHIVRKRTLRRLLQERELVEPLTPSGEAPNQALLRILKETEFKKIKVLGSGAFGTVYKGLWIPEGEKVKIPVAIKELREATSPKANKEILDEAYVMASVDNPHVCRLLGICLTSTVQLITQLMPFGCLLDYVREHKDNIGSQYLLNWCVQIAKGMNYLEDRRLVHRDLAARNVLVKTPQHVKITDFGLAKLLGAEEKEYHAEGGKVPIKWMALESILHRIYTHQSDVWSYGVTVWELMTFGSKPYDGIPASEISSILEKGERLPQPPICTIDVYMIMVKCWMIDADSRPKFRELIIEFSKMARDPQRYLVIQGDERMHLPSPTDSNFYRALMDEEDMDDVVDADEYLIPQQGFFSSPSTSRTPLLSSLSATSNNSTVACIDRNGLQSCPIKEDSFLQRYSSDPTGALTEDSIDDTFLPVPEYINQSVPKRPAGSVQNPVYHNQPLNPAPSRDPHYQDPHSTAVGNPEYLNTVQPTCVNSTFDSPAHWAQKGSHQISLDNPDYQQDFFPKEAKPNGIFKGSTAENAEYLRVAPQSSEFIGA

In order of falling IC50:
1. COc1cc2ncnc(Nc3cccc(Cl)c3F)c2cc1O[C@H]1CC[C@@]2(CC1)NCCNC2=O [Example 1, anti-9-[4-(3-chloro-2-fluoro-phenylamino)-7-methoxy-quinazolin-6-yloxy]-1,4-diaza-spiro[5.5]undecan-5-one]  4 nM
2. COc1cc2ncnc(Nc3cccc(Cl)c3F)c2cc1O[C@H]1CC[C@@]2(CC1)NCCN(C)C2=O [1(1), anti-9-[4-(3-chloro-2-fluoro-phenylamino)-7-methoxy-quinazolin-6-yloxy]-4-methyl-1,4-diaza-spiro[5.5]undecan-5-one]  2 nM
3. COc1cc2ncnc(Nc3cccc(Cl)c3F)c2cc1O[C@H]1CC[C@]2(CC1)NCCNC2=O [1(2), syn-9-[4-(3-chloro-2-fluoro-phenylamino)-7-methoxy-quinazolin-6-yloxy]-1,4-diaza-spiro[5.5]undecan-5-one]  2 nM
4. COc1cc2ncnc(Nc3cccc(Cl)c3F)c2cc1O[C@H]1CC[C@]2(CC1)C(=O)N(C)CCN2C [2(1), anti-9-[4-(3-chloro-2-fluoro-phenylamino)-7-methoxy-quinazolin-6-yloxy]-1,4-dimethyl-1,4-diaza-spiro[5.5]undecan-5-one]  2 nM
5. COc1cc2ncnc(Nc3cccc(Cl)c3F)c2cc1O[C@H]1CC[C@]2(CC1)C(=O)NCCN2C [Example 2, anti-9-[4-(3-chloro-2-fluoro-phenylamino)-7-methoxy-quinazolin-6-yloxy]-1-methyl-1,4-diaza-spiro[5.5]undecan-5-one]  1 nM
